# From US20090155784A1, “ASSESSMENT OF ASTHMA AND ALLERGEN-DEPENDENT GENE EXPRESSION” (Wyeth, priority 2007, published 2009)
# What was measured:
# human whole blood = human whole blood assay verifying inhibitory activity of the inhibitor samples; type: cell-based
# [1] = test system: PBMCs from healthy volunteers; assay: HG-U133A transcriptional profiling of allergen-stimulated PBMCs of healthy volunteers (HV/WHV), with and without cPLA2 inhibitor, 6 days culture; type: cell-based, human
# Excerpt: PBMCs were stimulated in vitro with a cocktail containing 4 different allergens from house dust mite, ragweed and cat. Recombinant allergens, Der p1, Der f2, Fel d1 (Indoor Biotech, Charlottesville, Va.) and natural ragweed allergen (Allergy Lab, Seattle, Wash.) were selected and screened for endotoxin contamination (LAL Endotoxin Test, Catalog #HIT302, sensitivity, 0.0001 Eu/ml, Cell Sciences, Canton, Mass.). The sensitivity of the subjects was unknown but the allergens were chosen based on the estimate that 80% of allergic individuals are believed to react to one or more of these allergens. Culture medium contained RPMI-1640 (Sigma) with 10% heat inactivated FCS (Sigma St. Louis, Mo.) and 100 unit/mL Penicillin and […] Streptomycin and 0.292 mg/mL Glutamine (GIBCO RL Invitrogen, Carlsbad, Calif.). The final allergen cocktail concentrations in culture medium were: Der p1 and Der f2 (dust mite), 1 mg/ml; Fel d1 (cat), 1.25 mg/ml; ragweed, 125 mg/ml. The total level of endotoxin contamination in culture medium was 0.057 Eu/ml. The cPLA2 inhibitor 4-{3-[1-benzhydryl-5-chloro-2-(2-{[(2,6-dimethylbenzyl)sulfonyl]amino}ethyl)-1H-indol-3-yl]propyl}benzoic acid was used at a concentration of 0.3 μM/ml. Zileuton, a 5-lipoxygenase inhibitor, was added at a concentration of 5 μM. The inhibitory activity of both the cPLA2 inhibitor and Zileuton samples were verified in a human whole blood assay. After 6 days in culture approximately 200 μL of supernatant was removed using an 8-channel pipettor without disturbing the cell pellet and placed into a collection plate for cytokine ELISA assays. To the remaining cell pellet 100 μL of RLT lysis buffer containing 1% beta-mercaptoethanol was added and snap frozen for RNA purification.
# RNA was purified using QIA shredders and Rneasy mini kits (Qiagen, Valencia, Calif.). PBMC pellets frozen in RLT lysis buffer containing 1% β-mercaptoethanol were thawed and processed for total RNA isolation using the QIA shredder and RNeasy mini kit. A phenol:chloroform extraction was then performed, and the RNA was repurified using the RNeasy mini kit reagents. Eluted RNA was quantified using a Spectramax96 well plate UV reader (Molecular Devices, Sunnyvale, Calif., USA) monitoring A260/280 OD values. The quality of each RNA sample was assessed by capillary electrophoresis alongside an RNA molecular weight ladder on the Agilent 2100 bioanalyzer (Agilent Technologies, Palo Alto, Calif., USA). RNA samples were assigned quality values of intact (distinct 18S and 28S bands); partially degraded (discernible 18S and 28S bands with presence of low molecular weight bands) or completely degraded (no discernible 18S and 28S bands).
# Labeled targets for oligonucleotide arrays were prepared using a modification of the procedure described by Lockhart et al. (Lockhart (1996) Nat. Biotechnol. 14:1675-80). Labeled targets were hybridized to the HG-U133A Affymetrix GeneChip Array as described in the Affymetrix technical manual. Eleven biotinylated control transcripts ranging in abundance from 3 parts per million (ppm) to 100 ppm were spiked into each sample to function as a standard curve (Hill (2001) Genome Biol. 2:RESEARCH0055). GeneChip MAS 5.0 software was used to evaluate the hybridization intensity, compute the signal value for each probe set and make an absent/present call.
# GeneChips were required to pass the pre-set quality control criteria that the RNA quality metric required a 5′:3′ ratio. Two asthma subjects were excluded from the study due to failure to meet the RNA quality metric and 2 GeneChips from the group treated with cPLA2a inhibitor were excluded for the same reason. The signal value for each probe set was converted into a frequency value representative of the number of transcripts present in 10^6 transcripts by reference to the standard curve (Hill (2001) Genome Biol. 2:RESEARCH0055). […]
structure (smiles),measurement,setting,value
"Cc1cccc(C)c1CS(=O)(=O)NCCc1c(CCCc2ccc(C(=O)O)cc2)c2cc(Cl)ccc2n1C(c1ccccc1)c1ccccc1 [cPLA2 inhibitor, 4-{3-[1-benzhydryl-5-chloro-2-(2-{[(2,6-dimethylbenzyl)sulfonyl]amino}ethyl)-1H-indol-3-yl]propyl}benzoic acid]",inhibitory activity in a human whole blood assay,human whole blood,verified
same,genes down regulated in response to allergen in Network 1 in the healthy population,"[1]; allergen + inhibitor, data not shown",brought up to non-allergen-stimulated background levels
same,Fold Change WHV Allergen vs. cPLA2 inhibitor,"[1]; gene C10ORF3, probeset 218542_at",−1.335
same,Fold Change WHV Allergen vs. cPLA2 inhibitor,"[1]; gene CDC2, probeset 203213_at",−1.258
same,Fold Change WHV Allergen vs. cPLA2 inhibitor,"[1]; gene CHIT1, probeset 208168_s_at",2.013
same,Fold Change WHV Allergen vs. cPLA2 inhibitor,"[1]; gene DAB2, probeset 201279_s_at",1.413
same,Fold Change WHV Allergen vs. cPLA2 inhibitor,"[1]; gene DAB2, probeset 210757_x_at",1.326
same,Fold Change WHV Allergen vs. cPLA2 inhibitor,"[1]; gene DUSP4, probeset 204014_at",−1.388
same,Fold Change WHV Allergen vs. cPLA2 inhibitor,"[1]; gene DUSP4, probeset 204015_s_at",−1.157
same,Fold Change WHV Allergen vs. cPLA2 inhibitor,"[1]; gene FABP3, probeset 205738_s_at",−1.037
same,Fold Change WHV Allergen vs. cPLA2 inhibitor,"[1]; gene FLJ23311, probeset 219990_at",1.042
same,Fold Change WHV Allergen vs. cPLA2 inhibitor,"[1]; gene GM2A, probeset 33646_g_at",1.344
same,Fold Change WHV Allergen vs. cPLA2 inhibitor,"[1]; gene GM2A, probeset 209727_at",1.211
same,Fold Change WHV Allergen vs. cPLA2 inhibitor,"[1]; gene HS3ST2, probeset 219697_at",1.288
same,Fold Change WHV Allergen vs. cPLA2 inhibitor,"[1]; gene ME1, probeset 204059_s_at",1.518
same,Fold Change WHV Allergen vs. cPLA2 inhibitor,"[1]; gene MELK, probeset 204825_at",−1.213
same,Fold Change WHV Allergen vs. cPLA2 inhibitor,"[1]; gene OIP5, probeset 213599_at",−1.067
same,Fold Change WHV Allergen vs. cPLA2 inhibitor,"[1]; gene PAPSS2, probeset 203060_s_at",1.13
same,Fold Change WHV Allergen vs. cPLA2 inhibitor,"[1]; gene PLEKHB2, probeset 201411_s_at",1.277
same,Fold Change WHV Allergen vs. cPLA2 inhibitor,"[1]; gene POLG, probeset 213007_at",−1.337
same,Fold Change WHV Allergen vs. cPLA2 inhibitor,"[1]; gene RACGAP1, probeset 222077_s_at",−1.108
same,Fold Change WHV Allergen vs. cPLA2 inhibitor,"[1]; gene RUVBL1, probeset 201614_s_at",−1.144
same,Fold Change WHV Allergen vs. cPLA2 inhibitor,"[1]; gene SLC36A1, probeset 213119_at",1.279
same,Fold Change WHV Allergen vs. cPLA2 inhibitor,"[1]; gene SLC38A6, probeset 214830_at",1.206
same,Fold Change WHV Allergen vs. cPLA2 inhibitor,"[1]; gene SLC39A14, probeset 212110_at",−1.568
same,Fold Change WHV Allergen vs. cPLA2 inhibitor,"[1]; gene SLCO2B1, probeset 203472_s_at",1.211
same,Fold Change WHV Allergen vs. cPLA2 inhibitor,"[1]; gene SLCO2B1, probeset 203473_at",1.237
same,Fold Change WHV Allergen vs. cPLA2 inhibitor,"[1]; gene SMC2L1, probeset 204240_s_at",−1.27
same,Fold Change WHV Allergen vs. cPLA2 inhibitor,"[1]; gene SN, probeset 219519_s_at",1.618
same,Fold Change WHV Allergen vs. cPLA2 inhibitor,"[1]; gene TRIP13, probeset 204033_at",−1.317
same,Fold Change WHV Allergen vs. cPLA2 inhibitor,"[1]; gene UNK_AI859865, probeset 222036_s_at",−1.29
same,Fold Change WHV Allergen vs. cPLA2 inhibitor,"[1]; gene UNK_BE966236, probeset 201890_at",−1.202
